From PubChem BioAssay (NCI)
Where a name gives a salt, the structure may show the parent alone.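 Exposure lasted 48 hours, with cells grown in 96-well plates and compounds tested at five concentrations. Abbreviation: GI50, concentration required for 50% inhibition of growth. At the TGI there is no net growth.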 Where a SMILES comes first, the peptide text is derived from it. The star is where a group is joined. Tfa = O=C(C(F)(F)F)*

Columns and labels:
Assay in all cases: inhibition of tumour cell growth, NCI panel, 48 h
T-47D breast = system: T-47D breast
SN12C renal = system: SN12C renal
SNB-19 CNS = system: SNB-19 CNS
SK-MEL-5 melanoma = system: SK-MEL-5 melanoma
SF-295 CNS = system: SF-295 CNS
SK-MEL-2 melanoma = system: SK-MEL-2 melanoma
SF-268 CNS = system: SF-268 CNS
RPMI-8226 leukemia = system: RPMI-8226 leukemia
786-0 renal = system: 786-0 renal
HL-60(TB) leukemia = system: HL-60(TB) leukemia

Structure (SMILES)	TGI (T-47D breast) [µM]	TGI (SN12C renal) [µM]	TGI (SNB-19 CNS) [µM]	TGI (SK-MEL-5 melanoma) [µM]	TGI (SF-295 CNS) [µM]	TGI (SK-MEL-2 melanoma) [µM]	TGI (SF-268 CNS) [µM]	TGI (RPMI-8226 leukemia) [µM]	TGI (786-0 renal) [µM]	TGI (HL-60(TB) leukemia) [µM]	GI50 (SN12C renal) [µM]	GI50 (SNB-19 CNS) [µM]	GI50 (SK-MEL-5 melanoma) [µM]	GI50 (SF-295 CNS) [µM]	GI50 (SK-MEL-2 melanoma) [µM]	GI50 (SF-268 CNS) [µM]	GI50 (RPMI-8226 leukemia) [µM]	GI50 (HL-60(TB) leukemia) [µM]
Cc1cc(N(CCC#N)CCC#N)ccc1/C(N=Nc1ccc(Cl)cc1)=N\NC(=O)c1cc(Cl)ccc1O	> 100	> 100	75.4	> 100	91.4	> 100	86.2	> 100	> 100									
COc1cc(C2SCC(=O)N2c2cc(Cl)c(Cl)cc2Cl)cc(OC)c1OC (configuration not stated)		> 100	> 100	> 100	> 100	> 100	> 100	89.7	> 100	> 100								
CCc1ccc(N=Cc2cc(OC)c(OC)c(OC)c2)cc1		> 100	> 100	> 100	> 100	> 100	> 100	47.2	> 100	> 100								
O=C(O)CC(NC(=O)C(F)(F)F)C(=O)NC(Cc1ccc(O)cc1)C(=O)O (stereo not drawn) (Tfa-Asp-Tyr-OH; configuration not given here)	> 50	> 50	> 50	> 50	> 50	> 50	> 50	> 50	> 50									
O=C(OCc1ccccc1CN1CCOCC1)c1cccc(Br)c1	49.6	> 100	> 100	33.3		52.9	> 100		> 100									
CN(C)C(Cc1cnc[nH]1)C(=O)N1CCCC1C(N)=O (configuration not stated)	> 100	> 100	> 100	> 100	> 100		> 100	> 100	> 100	> 100								
COC1=C2CC(C)CC(OC)C(O)C(C)/C=C(\C)C(OC(N)=O)C(OC)/C=C\C=C(/C)C(=O)NC(=C(C=NC(C)(C)C)C1=O)C2=O (configuration not stated)		21	26.9	15.4	31.7	12.3	37.4	13.5		1.86								
O=c1sc2c(s1)SSSSS2	> 50	> 50	> 50	> 50	> 50	> 50	> 50	> 50	> 50									
CN(C)CCOc1cccc2c1C(=O)c1ccccc1C2=O		37.3	66.3	25.3	29.3	31.4	27.3		52	29.4								
O=[N+]([O-])c1nc(-c2ccccn2)[nH]c1[N+](=O)[O-]		> 100	> 100	> 100	> 100	> 100	> 100	> 100		> 100								
O=P1(O)C=CC2(CCCC2)O1	> 100	> 100	> 100	> 100	> 100	> 100	> 100		> 100	> 100								
NCC(=O)NC1(c2cc3ccccc3s2)CCCCC1	> 100	> 100	> 100	33.2	> 100		> 100	45.2	> 100	86.8								
CC[C@@]1(N(C)C)C(=O)OCc2c1cc1n(c2=O)Cc2cc3ccccc3nc2-1	52.6		> 100	> 100	37.2	77.5	36.7	> 100	73.7									
Cc1ccc2c3c1O[C@H]1c4[nH]c5ccccc5c4C[C@@]4(O)[C@@H](C2)N(C)CC[C@]314		39.4	34.3	28.2		35.3	34.7	31.6	29.8	30.7								
CC(=O)Nc1ccc(Nc2cc(=O)[nH]c(=O)[nH]2)cc1	> 100	> 100	> 100	> 100	> 100		> 100	> 100	> 100	> 100								
O=C(Nc1cccc(-n2ccc3c(NC(=O)c4ccccc4)nccc32)c1)c1ccc(N2CCOCC2)c(C(F)(F)F)c1		> 100	> 100	0.169	0.49	20.1	> 100	13.1		4.82	0.134	0.058	0.0349	0.0306	0.253	0.0625	0.0545	0.0393
OCC1OC(n2nc(-c3ccccc3)nc2-c2cnccn2)C(O)C(O)C1O (configuration not stated)	> 100	> 100	> 100	> 100	> 100			> 100	> 100	> 100								
CC(C)(C)c1cc(CC2C(=O)c3ccccc3C2=O)cc(C(C)(C)C)c1O		35.9	12	11.1	12.4	10.8	17.1	3.34	21.1	6.69								
COC(=O)c1c2c(cc3c1CC1(Cc4cc5c(c(C=O)c4C1)CCCC5)C3)CCCC2 (configuration not stated)	> 100	> 100		> 100	> 100	85.1		> 100	> 100	59.9								
COc1cc(C2SC(N)=Nc3c2c(C)nn3C(=O)c2ccccc2O)cc(OC)c1OC (configuration not stated)	> 10	> 10	> 10	> 10	> 10	> 10	> 10	> 10	> 10									
COc1ccc2nc3cc(Cl)ccc3c(NCCCN(Cc3cc(OC)c(OC)c(OC)c3)Cc3cc(OC)c(OC)c(OC)c3)c2c1	47.4	41	35.8	2.61	12.1	72.1	41.7	32	32.1									
